Measured values published in ChEMBL document CHEMBL1833962, “Benzotriazinone and benzopyrimidinone derivatives as potent positive allosteric AMPA receptor modulators” (2011).
The source made the active and inactive calls. No cut-off for these calls is given here.

Tests used:
[1] = test system: Rattus norvegicus; assay: Positive allosteric modulation of AMPA receptor in anesthetized Long-Evans rat assessed as amplitude increase by measuring evoked hilar excitatory post-synaptic field potentials at 5 mg/kg, ip for every 20 secs up to 80 to 100 mins by electrophysiology assay; format: functional
[2] = species: Rattus norvegicus; assay: Positive allosteric modulation of AMPA receptor in Sprague-Dawley rat hippocampal neuron assessed as glutamate-induced response pre-treated for 20 secs by patch-clamp electrophysiology; format: tissue-based; conditions: Hippocampus
[3] = test system: Rattus norvegicus; assay: Positive allosteric modulation of AMPA receptor in anesthetized Long-Evans rat assessed as amplitude increase by measuring evoked hilar excitatory post-synaptic field potentials at 2 mg/kg, ip for every 20 secs up to 80 to 100 mins; format: functional; conditions: route intraperitoneal
[4] = test system: Rattus norvegicus; assay: Positive allosteric modulation of AMPA receptor in anesthetized Long-Evans rat assessed as amplitude increase by measuring evoked hilar excitatory post-synaptic field potentials at 1 mg/kg, ip for every 20 secs up to 80 to 100 mins by electrophysiology assay; format: functional; conditions: route intraperitoneal
[5] = test system: Rattus norvegicus; assay: Positive allosteric modulation of AMPA receptor in anesthetized Long-Evans rat assessed as amplitude increase by measuring evoked hilar excitatory post-synaptic field potentials at 1 mg/kg, iv for every 20 secs up to 80 to 100 mins by electrophysiology assay; format: functional
[6] = test system: Rattus norvegicus; assay: Positive allosteric modulation of AMPA receptor in anesthetized Long-Evans rat assessed as amplitude increase by measuring evoked hilar excitatory post-synaptic field potentials at 3 mg/kg, ip for every 20 secs up to 80 to 100 mins by electrophysiology assay; format: functional; conditions: route intraperitoneal
[7] = test system: Rattus norvegicus; assay: Positive allosteric modulation of AMPA receptor in anesthetized Long-Evans rat assessed as amplitude increase by measuring evoked hilar excitatory post-synaptic field potentials at 0.5 mg/kg, iv for every 20 secs up to 80 to 100 mins by electrophysiology assay; format: functional
[8] = test system: Rattus norvegicus; assay: Positive allosteric modulation of AMPA receptor in anesthetized Long-Evans rat assessed as amplitude increase by measuring evoked hilar excitatory post-synaptic field potentials at 10 mg/kg, ip for every 20 secs up to 80 to 100 mins by electrophysiology assay; format: functional; conditions: route intraperitoneal
[9] = test system: Rattus norvegicus; assay: Memory enhancing effect in Long-Evans rat assessed as increase in tetanic stimulation of hippocampal long term potentiation at 1 mg/kg, ip; format: functional, organism-based; parameters: dose 1 mg/kg; conditions: Hippocampus

Structure (SMILES) | CD [2] | Activity ([1]; route intraperitoneal) [%] | also measured
Cn1nnc2cc3c(cc2c1=O)OC1CCCN1C3=O (stereo unspecified) | 0.68 µM |  | Activity [1]: inactive
C#CCn1cnc2cc3c(cc2c1=O)OC1CCCN1C3=O (stereo unspecified) | 0.13 µM |  | Activity [1]: inactive
C#C[C@H](Cc1ccccc1)N1COc2cc3c(cc2C1=O)OC1CCCN1C3=O (stereo partly specified) | 0.32 µM |  | 
C[C@@H](Cn1cc(Cl)cn1)n1cnc2cc3c(cc2c1=O)OC1CCCN1C3=O (stereo partly specified) | inactive |  | 
C#C[C@H](Cc1cccc(F)c1)n1cnc2cc3c(cc2c1=O)OC1CCCN1C3=O (stereo partly specified) | 0.006 µM |  | Activity [3]: 12%
COC(CN1COc2cc3c(cc2C1=O)OC1CCCN1C3=O)c1ccccc1 (racemic) | 7.4 µM |  | 
O=C1c2cc3ncn(CCn4cccn4)c(=O)c3cc2OC2CCCN12 (stereo unspecified) | 0.17 µM |  | Activity [1]: inactive
C[C@H](Cn1cnnn1)n1nnc2cc3c(cc2c1=O)OC1CCCN1C3=O (stereo partly specified) | 0.015 µM | 10 | 
O=C1c2cc3nnn(CCn4cccn4)c(=O)c3cc2OC2CCCN12 (stereo unspecified) | 0.1 µM |  | Activity [1]: inactive
O=C1c2cc3ncn(C4CC4)c(=O)c3cc2OC2CCCN12 (stereo unspecified) | 6.7 µM |  | 
O=C1c2cc3ncn(CCc4ccccc4)c(=O)c3cc2OC2CCCN12 (stereo unspecified) | 0.13 µM | 2 | 
C[C@H](Cn1ncnn1)n1nnc2cc3c(cc2c1=O)OC1CCCN1C3=O (stereo partly specified) | 0.042 µM | 39 | 
C#C[C@H](Cc1cc(F)cc(F)c1)n1nnc2cc3c(cc2c1=O)OC1CCCN1C3=O (stereo partly specified) | 0.0029 µM | 34 | 
C[C@H](Cn1cnnn1)n1nnc2cc3c(cc2c1=O)OCN(C1CC1)C3=O | 0.19 µM | 7 | 
C#C[C@H](Cc1cc(F)cc(F)c1)n1cnc2cc3c(cc2c1=O)OC1CCCN1C3=O (stereo partly specified) | 0.002 µM |  | Activity [4]: 30%
O=C1c2cc3c(cc2OCN1CCc1cccc(F)c1)C(=O)N1CCCC1O3 (stereo unspecified) | 0.011 µM | 2 | Activity [5]: 28%
CC(C)(CN1COc2cc3c(cc2C1=O)OC1CCCN1C3=O)c1cccc(F)c1 (stereo unspecified) | 17 µM |  | 
C[C@H](Cn1cc(Cl)cn1)n1cnc2cc3c(cc2c1=O)OC1CCCN1C3=O (stereo partly specified) | 0.0069 µM |  | Activity [4]: 2%
CC[C@H](Cc1cccc(F)c1)n1nnc2cc3c(cc2c1=O)OC1CCCN1C3=O (stereo partly specified) | 0.021 µM | 2 | 

Structure (SMILES) | CD [2] | Activity ([1]; route intraperitoneal) [%] | also measured
CC[C@H](Cn1cc(Cl)cn1)n1cnc2cc3c(cc2c1=O)OC1CCCN1C3=O (stereo partly specified) | 0.0084 µM |  | Activity [6]: 4%
C#CCn1nnc2cc3c(cc2c1=O)OC1CCCN1C3=O (stereo unspecified) | 0.14 µM |  | Activity [1]: inactive
C#C[C@H](Cc1cccc(F)c1)n1nnc2cc3c(cc2c1=O)OCN(C1CC1)C3=O | 0.2 µM | 10 | 
C[C@H](Cn1ncnn1)n1cnc2cc3c(cc2c1=O)OC1CCCN1C3=O (stereo partly specified) | 0.03 µM | 22 | 
C#C[C@H](Cc1cccc(F)c1)n1nnc2cc3c(cc2c1=O)OC1CCCN1C3=O (stereo partly specified) | 0.004 µM |  | Activity [3]: 5%
O=C1c2cc3ncn(CCc4cccc(F)c4)c(=O)c3cc2OC2CCCN12 (stereo unspecified) | 0.0037 µM |  | Activity [7]: 21%; Activity [6]: 27%
C[C@H](Cn1nccn1)n1cnc2cc3c(cc2c1=O)OC1CCCN1C3=O (stereo partly specified) | 0.45 µM | 7 | 
O=C1c2cc3nnn(CCc4cccc(F)c4)c(=O)c3cc2OC2CCCN12 (stereo unspecified) | 0.0031 µM | 24 | Activity [5]: 24%
O=C(CN1COc2cc3c(cc2C1=O)OC1CCCN1C3=O)c1ccccc1 (stereo unspecified) | 100 µM |  | 
O=C1c2cc3ncn(CCn4cc(Cl)cn4)c(=O)c3cc2OC2CCCN12 (stereo unspecified) | 0.019 µM |  | Activity [6]: 3%
O=C1c2cc3c(cc2OCN1CC(F)(F)c1cccc(F)c1)C(=O)N1CCCC1O3 (stereo unspecified) | 1.5 µM |  | 
O=C1c2cc3c(cc2OCN1CCc1ccccc1)C(=O)N1CCCC1O3 (stereo unspecified) | 0.25 µM |  | 
COC(=O)[C@H](Cc1ccccc1)N1COc2cc3c(cc2C1=O)OC1CCCN1C3=O (stereo partly specified) | 0.28 µM |  | 
O=C1c2cc3nnn(C4CC4)c(=O)c3cc2OC2CCCN12 (stereo unspecified) | 0.4 µM |  | Activity [8]: 3%
O=C1c2cc3c(cc2OCN1CC(O)c1ccccc1)C(=O)N1CCCC1O3 (racemic) | 1 µM |  | 
C[C@H](Cn1ncnn1)n1nnc2cc3c(cc2c1=O)OCN(C1CC1)C3=O | 0.46 µM | 33 | Activity [9]: Active
C#C[C@H](Cc1cccc(F)c1)N1COc2cc3c(cc2C1=O)OC1CCCN1C3=O (stereo partly specified) | 0.004 µM |  | 
COC(=O)[C@@H](Cc1ccccc1)N1COc2cc3c(cc2C1=O)OC1CCCN1C3=O (stereo partly specified) | 48 µM |  | 
